{
  "source": "patent US10207006B2",
  "about": "“Oligosaccharide conjugates and methods of use” (priority 2013, dated 2019)",
  "key": {"[1]": {"test_system": "anti-A and anti-M rabbit hyperimmunised and absorbed monospecific sera", "format": "binding"}, "[2]": {"test_system": "anti-M monoclonal antibody BM40", "format": "binding"}},
  "data": [
    {"smiles": "C[C@H]1O[C@H](O[C@@H]2[C@@H](O[C@@H]3[C@H](O)[C@@H](O[C@H]4[C@@H](O)[C@H](NC=O)[C@@H](C)O[C@@H]4O)O[C@H](C)[C@H]3NC=O)O[C@H](C)[C@@H](NC=O)[C@@H]2O)[C@@H](O)[C@@H](O)[C@@H]1NC=O", "note": "[TSM antigen, 4,6-dideoxy-4-formamido-α-D-mannopyranosyl-(1-2)-4,6-dideoxy-4-formamido-α-D-mannopyranosyl-(1-3)-4,6-dideoxy-4-formamido-α-D-mannopyranosyl-(1-2)-4,6-dideoxy-4-formamido-α-D-mannopyranose]", "values": [
      {"measurement": "inhibition of anti-M vs anti-A monospecific sera binding", "setting": "[1]", "result": "preferential inhibition of the anti-M sera"},
      {"measurement": "inhibition of BM40 mAb binding by competing liquid phase antigen", "setting": "[2]", "result": "inhibit the binding to a greater extent than the equivalent concentration of Y. enterocolitica O:9 OPS and to a similar degree as the B. abortus S99 OPS"}
    ]},
    {"smiles": "CO[C@H]1OC(C)[C@@H](NC=O)C(O)C1O[C@H]1OC(C)[C@@H](NC=O)C(O[C@H]2OC(C)[C@@H](NC=O)C(O)C2O[C@H](C=O)OC(C)[C@H](C=O)NC=O)C1O", "note": "(stereo partly drawn) [oxiTSM]", "values": [
      {"measurement": "inhibition of BM40 mAb binding by competing liquid phase antigen", "setting": "[2]", "result": "maintained its antibody interaction"}
    ]}
  ]
}
